In ChEMBL document CHEMBL4420076, “Amylin and calcitonin receptor agonist” (2017):
pEC50, pIC50: −log10 of the molar value. Numbered stars: 1 amine (or outer) side, 2 acyl side, 3 side chain; on linkers, the order of the positions; unused ones are H or OH. Peptide text beside a SMILES is read from it. * marks the point of attachment. C20 diacid = O=C(O)CCCCCCCCCCCCCCCCCCC(=O)*; C18 diacid = O=C(O)CCCCCCCCCCCCCCCCC(=O)*; C16 diacid = O=C(O)CCCCCCCCCCCCCCC(=O)*; γGlu = O=C(O)[C@H](CCC(=O)[*:2])N[*:1]

Key:
[1] = target: T1, Amylin receptor AMY3; CALCR/RAMP3 (Homo sapiens, UniProt O60896+P30988); test: Agonist activity at human amylin receptor expressed in BHK570 cells co-expressing RAMP3 assessed as increase in intracellular cAMP concentration incubated for 3 hrs in absence of albumin by CRE luciferase reporter gene assay; type: functional, cell-based
T1 sequence (P30988 whole entry): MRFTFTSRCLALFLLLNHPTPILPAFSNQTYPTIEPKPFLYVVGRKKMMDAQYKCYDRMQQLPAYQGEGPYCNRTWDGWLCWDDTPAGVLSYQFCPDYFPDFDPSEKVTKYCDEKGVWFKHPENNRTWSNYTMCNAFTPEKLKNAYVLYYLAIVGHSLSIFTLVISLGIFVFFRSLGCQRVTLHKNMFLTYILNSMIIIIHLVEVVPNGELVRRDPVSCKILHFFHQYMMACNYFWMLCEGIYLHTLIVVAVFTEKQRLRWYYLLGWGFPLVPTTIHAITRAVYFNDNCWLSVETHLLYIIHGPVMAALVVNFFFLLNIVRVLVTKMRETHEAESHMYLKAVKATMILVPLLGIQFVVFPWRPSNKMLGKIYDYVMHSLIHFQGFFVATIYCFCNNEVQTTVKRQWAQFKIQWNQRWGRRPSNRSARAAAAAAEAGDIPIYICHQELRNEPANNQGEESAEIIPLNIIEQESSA
T1 sequence (O60896 whole entry): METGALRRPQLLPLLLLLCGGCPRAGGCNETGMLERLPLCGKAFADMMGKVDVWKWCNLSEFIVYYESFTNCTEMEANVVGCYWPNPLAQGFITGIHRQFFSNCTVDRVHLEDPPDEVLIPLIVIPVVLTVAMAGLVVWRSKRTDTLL

[2] = target: T2, Calcitonin receptor (Homo sapiens, UniProt P30988); test: Agonist activity at human calcitonin receptor expressed in BHK570 cells assessed as increase in intracellular cAMP concentration incubated for 3 hrs in absence of albumin by CRE luciferase reporter gene assay; type: functional, cell-based
T2 sequence (P30988 whole entry): T1 sequence (P30988 whole entry)

[3] = Solubility in 100 mM glycylglycine buffer at pH 3.0 incubated for 18 hrs by UPLC analysis; type: physicochemical
[4] = Solubility in 100 mM glycylglycine buffer at pH 4.0 incubated for 18 hrs by UPLC analysis; type: physicochemical
[5] = Solubility in 100 mM bistrispropane buffer at pH 6.0 incubated for 18 hrs by UPLC analysis; type: physicochemical
[6] = Solubility in 100 mM glycylglycine buffer at pH 5.0 incubated for 18 hrs by UPLC analysis; type: physicochemical
[7] = Solubility in 100 mM bistrispropane buffer at pH 6.5 incubated for 18 hrs by UPLC analysis; type: physicochemical
[8] = Solubility in 100 mM bistrispropane buffer at pH 7.0 incubated for 18 hrs by UPLC analysis; type: physicochemical
[9] = Solubility in 100 mM bistrispropane buffer at pH 7.5 incubated for 18 hrs by UPLC analysis; type: physicochemical
[10] = Solubility in 100 mM bistrispropane buffer at pH 8.0 incubated for 18 hrs by UPLC analysis; type: physicochemical
[11] = target: T1, Amylin receptor AMY3; CALCR/RAMP3; test: Displacement of [125I]-labeled rat amylin from human amylin receptor expressed in BHK tkts13 whole cells co-expressing RAMP3 incubated for 60 mins by scintillation proximity assay; type: cell-based
[12] = target: T2, Calcitonin receptor; test: Displacement of [125I]-labeled human calcitonin from human calcitonin receptor expressed in BHK tkts13 whole cells incubated for 60 mins by scintillation proximity assay; type: cell-based
[13] = test system: Rattus norvegicus; test: Reduction in food intake in Sprague-Dawley rat at 3 nmol/kg measured 0 to 24 hrs post dose relative to control; type: functional; parameters: scale not given: the % may be the effect or the level left
[14] = test system: Rattus norvegicus; test: Reduction in food intake in Sprague-Dawley rat at 3 nmol/kg measured 24 to 48 hrs post dose relative to control; type: functional; parameters: scale not given: the % may be the effect or the level left
[15] = target: T1, Amylin receptor AMY3; CALCR/RAMP3; test: Agonist activity at human amylin receptor expressed in BHK570 cells co-expressing RAMP3 assessed as increase in intracellular cAMP concentration incubated for 3 hrs in presence of 10% FBS by CRE luciferase reporter gene assay; type: functional, cell-based
[16] = target: T2, Calcitonin receptor; test: Agonist activity at human calcitonin receptor expressed in BHK570 cells assessed as increase in intracellular cAMP concentration incubated for 3 hrs in presence of 10% FBS by CRE luciferase reporter gene assay; type: functional, cell-based
[17] = Stability in pH 7.5 buffer assessed as lag time for fibril formation at 1 uM by Thioflavin T based fluorescence assay; type: physicochemical; conditions: pH 7.5, 1 µM
[18] = Stability in pH 7.5 buffer assessed as compound recovery at 1 uM by Thioflavin T based fluorescence assay; type: physicochemical; conditions: read-out: Drug recovery
[19] = target: T1, Amylin receptor AMY3; CALCR/RAMP3; test: Displacement of [125I]-labeled rat amylin from human amylin receptor expressed in BHK570 cell membranes co-expressing RAMP3 incubated for 120 mins by scintillation proximity assay
[20] = target: T2, Calcitonin receptor; test: Displacement of [125I]-labeled human calcitonin from human calcitonin receptor expressed in BHK tkts13 cell membranes incubated for 1 hr by scintillation proximity assay
[21] = target: T3, Amylin receptor AMY3; CALCR/RAMP3 (Rattus norvegicus, UniProt P32214+Q9JJ73); test: Displacement of [125I]-labeled rat amylin from rat amylin receptor expressed in BHK tkts13 cell membranes co-expressing RAMP3 incubated for 120 mins by scintillation proximity assay
T3 sequence (P32214 whole entry): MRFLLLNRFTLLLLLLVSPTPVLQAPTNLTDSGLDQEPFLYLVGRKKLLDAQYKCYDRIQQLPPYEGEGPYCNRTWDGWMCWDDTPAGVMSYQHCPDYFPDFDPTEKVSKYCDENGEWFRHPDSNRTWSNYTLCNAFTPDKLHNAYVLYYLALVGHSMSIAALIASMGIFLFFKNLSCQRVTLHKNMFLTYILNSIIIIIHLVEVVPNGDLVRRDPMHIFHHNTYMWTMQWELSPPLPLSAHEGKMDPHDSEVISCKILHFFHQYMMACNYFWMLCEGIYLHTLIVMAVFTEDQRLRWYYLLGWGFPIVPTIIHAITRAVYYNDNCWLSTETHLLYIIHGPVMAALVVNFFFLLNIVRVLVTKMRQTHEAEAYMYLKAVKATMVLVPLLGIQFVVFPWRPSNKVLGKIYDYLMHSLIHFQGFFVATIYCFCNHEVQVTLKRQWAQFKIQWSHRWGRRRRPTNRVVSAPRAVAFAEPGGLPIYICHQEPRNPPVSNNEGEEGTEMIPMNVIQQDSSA
T3 sequence (Q9JJ73 whole entry): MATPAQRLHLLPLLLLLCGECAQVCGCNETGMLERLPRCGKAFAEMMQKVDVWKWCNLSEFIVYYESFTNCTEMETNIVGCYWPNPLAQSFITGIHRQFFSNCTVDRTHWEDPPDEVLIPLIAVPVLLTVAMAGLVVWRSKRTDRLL

SMILES	pEC50 [1]	pEC50 [2]	solubility at 18 h [3] [µM]	solubility at 18 h [4] [µM]	solubility at 18 h [5] [µM]	solubility at 18 h [6] [µM]	solubility at 18 h [7] [µM]	solubility at 18 h [8] [µM]	solubility at 18 h [9] [µM]	solubility at 18 h [10] [µM]	pIC50 [11]	pIC50 [12]	also measured
CC(C)C[C@H](NC(=O)[C@H](C)NC(=O)[C@H](C)NC(=O)[C@@H](NC(=O)[C@H](CO)NC(=O)[C@H](CC(C)C)NC(=O)[C@H](CCC(=O)O)NC(=O)[C@H](CO)NC(=O)[C@H](C)NC(=O)[C@H](CCC(=O)O)NC(=O)CCCCCCCCCCCCCCCCC(=O)O)[C@@H](C)O)C(=O)NCC(=O)N[C@@H](CCCNC(=N)N)C(=O)N[C@@H](CC(C)C)C(=O)N[C@@H](CO)C(=O)N[C@@H](C)C(=O)N[C@@H](CCC(=O)O)C(=O)N[C@@H](CC(C)C)C(=O)N[C@@H](Cc1cnc[nH]1)C(=O)N[C@@H](CCC(=O)O)C(=O)N[C@@H](CC(C)C)C(=O)N[C@@H](C)C(=O)N[C@H](C(=O)N[C@@H](CC(C)C)C(=O)N1CCC[C@H]1C(=O)N[C@@H](CCCNC(=N)N)C(=O)N[C@H](C(=O)N[C@@H](CCC(=O)O)C(=O)N[C@H](C(=O)NCC(=O)N1CCC[C@H]1C(=O)N[C@@H](CCC(=O)O)C(=O)N[C@@H](Cc1cnc[nH]1)C(=O)N1CCC[C@H]1C(N)=O)[C@@H](C)O)[C@@H](C)O)[C@@H](C)O ({C18 diacid}-EASELSTAALGRLSAELHELATLPRTETGPEHP-NH2)	10.70	10.77	≥ 200	≥ 200	≥ 200	≥ 200	≥ 200	≥ 200	≥ 200	≥ 200	8.90	8.93	–
CC(C)C[C@H](NC(=O)[C@H](C)NC(=O)[C@H](C)NC(=O)[C@@H](NC(=O)[C@H](CO)NC(=O)[C@H](CC(C)C)NC(=O)[C@H](CCC(=O)O)NC(=O)[C@H](CO)NC(=O)[C@H](C)NC(=O)CC[C@H](NC(=O)CCCCCCCCCCCCCCC(=O)O)C(=O)O)[C@@H](C)O)C(=O)NCC(=O)N[C@@H](CCCNC(=N)N)C(=O)N[C@@H](CC(C)C)C(=O)N[C@@H](CO)C(=O)N[C@@H](C)C(=O)N[C@@H](CCC(=O)O)C(=O)N[C@@H](CC(C)C)C(=O)N[C@@H](Cc1cnc[nH]1)C(=O)N[C@@H](CCC(=O)O)C(=O)N[C@@H](CC(C)C)C(=O)N[C@@H](C)C(=O)N[C@H](C(=O)N[C@@H](CC(C)C)C(=O)N1CCC[C@H]1C(=O)N[C@@H](CCCNC(=N)N)C(=O)N[C@H](C(=O)N[C@@H](CCC(=O)O)C(=O)N[C@H](C(=O)NCC(=O)N[C@@H](CO)C(=O)NCC(=O)N[C@@H](CO)C(=O)N1CCC[C@H]1C(N)=O)[C@@H](C)O)[C@@H](C)O)[C@@H](C)O ({C16 diacid-γGlu}-ASELSTAALGRLSAELHELATLPRTETGSGSP-NH2)	10.74	10.82	≥ 200	≥ 200	≥ 200	≥ 200	≥ 200	≥ 200	≥ 200	≥ 200	–	–	Activity [13]: 66%; Activity [14]: 10%; pEC50 [15]: 11.40; pEC50 [16]: 11.70; Time [17]: > 45 h; remaining at 1 µM [18]: 100%; pIC50 [19]: 10.43; pIC50 [20]: 10.62; pIC50 [21]: 10.66
CC(C)C[C@H](NC(=O)[C@H](CCCNC(=N)N)NC(=O)CNC(=O)[C@H](CC(C)C)NC(=O)[C@@H](NC(=O)[C@H](C)NC(=O)[C@@H](NC(=O)[C@H](CO)NC(=O)[C@H](CC(C)C)NC(=O)[C@H](CCC(N)=O)NC(=O)[C@H](CO)NC(=O)[C@H](C)NC(=O)[C@H](CCC(=O)O)NC(=O)CC[C@H](NC(=O)CCCCCCCCCCCCCCCCCCC(=O)O)C(=O)O)[C@@H](C)O)C(C)C)C(=O)N[C@@H](CO)C(=O)N[C@@H](CCC(N)=O)C(=O)N[C@@H](CCC(=O)O)C(=O)N[C@@H](CC(C)C)C(=O)N[C@@H](Cc1cnc[nH]1)C(=O)N[C@@H](CCC(=O)O)C(=O)N[C@@H](CC(C)C)C(=O)N[C@@H](CCC(N)=O)C(=O)N[C@H](C(=O)N[C@@H](Cc1ccc(O)cc1)C(=O)N1CCC[C@H]1C(=O)N[C@@H](CCCNC(=N)N)C(=O)N[C@H](C(=O)NCC(=O)N[C@H](C(=O)NCC(=O)N[C@@H](CO)C(=O)NCC(=O)N[C@H](C(=O)N[C@@H](Cc1ccc(O)cc1)C(N)=O)[C@@H](C)O)[C@@H](C)O)[C@@H](C)O)[C@@H](C)O ({C20 diacid-γGlu}-EASQLSTAVLGRLSQELHELQTYPRTGTGSGTY-NH2)	10.18	10.25	–	–	–	–	–	–	–	–	9.47	9.10	–
CC(C)C[C@H](NC(=O)[C@H](C)NC(=O)[C@H](C)NC(=O)[C@@H](NC(=O)[C@H](CO)NC(=O)[C@H](CC(C)C)NC(=O)[C@H](CCC(N)=O)NC(=O)[C@H](CO)NC(=O)[C@H](C)NC(=O)CC[C@H](NC(=O)CCCCCCCCCCCCCCCCC(=O)O)C(=O)O)[C@@H](C)O)C(=O)NCC(=O)N[C@@H](CCCNC(=N)N)C(=O)N[C@@H](CC(C)C)C(=O)N[C@@H](CO)C(=O)N[C@@H](C)C(=O)N[C@@H](CCC(=O)O)C(=O)N[C@@H](CC(C)C)C(=O)N[C@@H](Cc1cnc[nH]1)C(=O)N[C@@H](CCC(=O)O)C(=O)N[C@@H](CC(C)C)C(=O)N[C@@H](C)C(=O)N[C@H](C(=O)N[C@@H](CC(C)C)C(=O)N1CCC[C@H]1C(=O)N[C@@H](CCCNC(=N)N)C(=O)N[C@H](C(=O)N[C@@H](CCC(=O)O)C(=O)N[C@H](C(=O)NCC(=O)N[C@@H](CO)C(=O)NCC(=O)N[C@@H](CO)C(=O)N1CCC[C@H]1C(N)=O)[C@@H](C)O)[C@@H](C)O)[C@@H](C)O ({C18 diacid-γGlu}-ASQLSTAALGRLSAELHELATLPRTETGSGSP-NH2)	11.05	10.96	≥ 200	≥ 200	≥ 200	≥ 200	≥ 200	≥ 200	≥ 200	≥ 200	–	9.22	–
